Results from patent publication US10975142B2, “Endotrophin neutralization and use thereof” (THE BOARD OF REGENTS OF THE UNIVERSITY OF TEXAS SYSTEM, priority 2013, dated 2021).
Entries after “also recorded” stand apart in the source; their conditions may differ.

What was measured:
endotrophin+-tumors [1] = test: allografts of Ctrl- and endotrophin+-cancer cells in wild-type hosts, TZD and cisplatin; type: in vivo, mouse; settings: cisplatin 1 mg/kg ip. every 5 days, TZD 20 mg/kg or ND
Description: FIGS. 21A-21F. TZD synergizes cisplatin sensitivity through suppression of endotrophin-mediated EMT, fibrosis and vasculature. FIGS. 21A-21B. Schematic diagram for allografts (FIG. 21A), indicating cancer cells (0.5×10^6 cells/mouse) were isolated from tumors in PyMT (Ctrl) and PyMT/endotrophin (ETP) mice and implanted into wild-type hosts. Host mice were given TZD (20 mg/kg) or ND diet at 10 days before implantation for tumor progression. Cisplatin (1 mg/kg, ip., every 5 days) was administered at 3-weeks post implantation. […] Data represent mean±SD (n=8-9/group). *p=0.05, **p=0.01 and ***p=0.001 Ctrl/ND vs. ETP/ND; ^##p=0.01 and ^###p=0.001 ETP/ND vs. ETP/TZD by unpaired student t-test. FIGS. 21C-21F. Histological analysis of tumors in allografts after cisplatin treatment. […] Vimentin staining quantification (FIG. 21D), showing decreased EMT in both Ctrl- and endotrophin^+-tumors by TZD. ***p<0.0001 and ^###p<0.0001. Quantification of perfused lectin staining (FIG. 21E), showing the increased functional blood vessels in endotrophin^+-tumors was decreased by TZD. *p=0.015, **p=0.001 and ^##p=0.0088. Masson's Trichrome C staining quantification (FIG. 21F), showing increased fibrosis in endotrophin^+-tumors was decreased by TZD. ***p<0.0001 and ^##p=0.0013. […] Statistics (*Ctrl/ND/CIS vs. Ctrl/TZD/CIS or ETP/ND/CIS; ^#ETP/ND/CIS vs. ETP/TZD/CIS) were analyzed by unpaired student t-test. […]

endotrophin+-tumors [2] = test: allografts of tumor pieces (Ctrl-tumor, ETP+-tumor) in wild-type hosts, cisplatin; type: in vivo, mouse; settings: cisplatin 1 mg/kg, ip. twice a week
Description: FIGS. 20A-20C. Endotrophin overexpression confers cisplatin resistance in PyMT mice. FIG. 20A. 10-weeks-aged PyMT and PyMT/endotrophin (PyMT/ETP) mice were given high dosage of cisplatin (2.5 mg/kg, ip., 2 times/week). Tumor growth was determined by caliper measurements. Data represent mean±SD (n=7-10/group). ***p<0.001, PyMT/CIS vs. PyMT/ETP/CIS by 2-way ANOVA. FIGS. 20B-20C. A piece of tumors taken from PyMT (Ctrl-tumor) and PyMT/endotrophin (ETP^+-tumor) mice were implanted into isogenic wild-type hosts. Cisplatin (1 mg/kg, ip., 2 times/week) were injected at 3-weeks post implantation for tumor progression. Tumor volume was determined by caliper measurement. […] Data represent mean±SD (n=7-8/group). *p<0.05 vs. Ctrl-tumors by 2-way ANOVA. Representative images were taken at 70-days post implantation. Scale: 10 mm.

PyMT mice = test: 10B6 treatment of PyMT mice, tumor growth; type: in vivo; settings: 10B6 200 μg/mouse i.p. twice weekly, 9 to 13 weeks of age, vs isotype control IgG
Description: FIGS. 8A-8I: 10B6 blocks ETP-mediated stromal expansion in vivo. (FIG. 8A) 10B6 (200 μg/mouse) was i.p. injected twice weekly into PyMT mice from 9 to 13 weeks of age. Tumor growth (mean±SEM; n=4-6 per group) was determined by weekly caliper measurements. *P<0.05, **P<0.01, ***P<0.001 vs. IgG control, 2-way ANOVA. (FIG. 8B) Primary mammary epithelial cancer cells were isolated from 12-week-old FP635/PyMT and FP635/PyMT/ETP mice and implanted into WT recipients with the same volume of Matrigel. For the 10B6 group, 10B6 was added in a Matrigel plug (10 μg/plug) admixed with ETP^+-cancer cells (i.e., ETP^+/10B6). A representative whole-body image was acquired 25 days after implantation using IVIS fluorescence scanner. Artificial color indicates fluorescence signal intensity accounts for tumor volume (AU). Quantitative results are represented as mean±SEM (n=3 per group). *P<0.05, unpaired t test. […] Quantified results in FIGS. 8D-8I are mean±SEM (multiple images, n=3 per group). *P<0.05, **P<0.01, unpaired t test. […]
Tumor onset was monitored twice weekly by palpation. Tumor sizes were measured with a digital caliper twice weekly and the volumes were calculated as […]. […] Metastatic tumor growth was determined by histological analysis with H&E stained lung tissues.

Row | Molecule | tumor growth (volume) of endotrophin+-tumors (endotrophin+-tumors [1]) | response of endotrophin+-tumors compared to control (Ctrl)-tumors (endotrophin+-tumors [2]) | tumor growth (PyMT mice)
1 | N.N.[Cl][Pt][Cl] [cisplatin, cis-diammine-dichloro-platinum] | more resistant | more resistant; also recorded: increased cisplatin resistance | 
2 | 10B6: rat anti-mouse endotrophin monoclonal antibody; light chain variable SEQ ID NO: 2, heavy chain variable SEQ ID NO: 4 (antibody, V domains shown) VH: QVQLQQSGPELAKPGSSVKISCKASGYTFTSYEMHWIKQRPGQGLEWIGYIYPESGSTGYNEKFKGKATLTVDKSSPTAYMQLSSLTPDNSAVYFCTRGLRVLGYVMDVWGHGTSVTVSS VL: DVQLTQSPSFLSASVGDRVTINCKASQNINKYLNWYQQKLGEAPKRLIYNTNNLQTGIPSRFSGSASGTDYTLTISSLHPEDFATYFCLQHSSLYTFGAGTKLELK |  |  | significantly attenuated
